The values that follow are results of earlier work, collected in article PMC8513935.

The nature of series [1]: derived by the authors as gas->solvent minus gas->water (a hypothetical dry solvent; the ESI), not a two-phase measurement.
Series [2] is described as follows: log P octanol/water from commercial databases, averaged (the ESI). The note with it: Octanol (wet), 25 C.
A short description of series [3]: experimental, compiled by the authors from the literature (the ESI cites the sources).

For `CC(C)c1ccccc1`, the log K of transfer, water to solvent in series [1] (Acetone, 25 C) was 4.1 log10 K; in series [1] (Hexadecane, 25 C), 3.86 log10 K; in series [1] (Methanol, 25 C), 3.58 log10 K; in series [1] (Octan-1-ol(dry), 25 C) it was 3.76 log10 K; in series [1] (Propan-2-ol, 25 C), 3.57 log10 K; in series [1] (Tetrahydrofuran, 25 C) it was 4.55 log10 K. Further, the log K of transfer, water to solvent in series [2] was 3.66 log10 K. The log K of transfer, gas to solvent in series [3] (Hexadecane, 25 C) was 4.08 log10 K; in series [3] (Methanol, 25 C), 3.8 log10 K; in series [3] (Octan-1-ol, 25 C), 3.98 log10 K; in series [3] (Propan-2-ol, 25 C), 3.79 log10 K; in series [3] (Propanone, 25 C), 4.32 log10 K; in series [3] (Tetrahydrofuran, 25 C), 4.77 log10 K. For the same compound, the log K of transfer, gas to solvent in series [3] (Water, 25 C) is 0.22 log10 K.

As to `Cc1ccccc1C`, the log K of transfer, water to solvent in series [1] (1,2-Dichloroethane, 25 C) was 3.83 log10 K; in series [1] (CCl4, 25 C), 3.87 log10 K; in series [1] (Chloroform, 25 C), 3.91 log10 K; in series [1] (Cyclohexane, 25 C), 3.32 log10 K; in series [1] (Hexadecane, 25 C), 3.28 log10 K; in series [1] (Octan-1-ol(dry), 25 C) it was 3.24 log10 K. In addition, the log K of transfer, water to solvent is 3.14 log10 K in series [1] (Pentan-1-ol, 25 C); 3.82 log10 K in series [1] (Toluene, 25 C); 3.12 log10 K in series [2]. Also, the log K of transfer, gas to solvent in series [3] (1,2-Dichloroethane, 25 C) is 4.49 log10 K; in series [3] (CCl4, 25 C), 4.53 log10 K; in series [3] (Chloroform, 25 C) it was 4.57 log10 K; in series [3] (Cyclohexane, 25 C), 3.98 log10 K; in series [3] (Hexadecane, 25 C), 3.94 log10 K; in series [3] (Octan-1-ol, 25 C), 3.9 log10 K. For the same compound, the log K of transfer, gas to solvent is 3.8 log10 K in series [3] (Pentan-1-ol, 25 C); 4.48 log10 K in series [3] (Toluene, 25 C); 0.66 log10 K in series [3] (Water, 25 C).

For `CCCc1ccccc1`, the log K of transfer, water to solvent is 3.84 log10 K in series [1] (Hexadecane, 25 C); 3.68 log10 K in series [1] (Hexane, 25 C); 3.52 log10 K in series [1] (Methanol, 25 C); 3.7 log10 K in series [1] (Octan-1-ol(dry), 25 C); 3.54 log10 K in series [1] (Propan-2-ol, 25 C); 4.48 log10 K in series [1] (Tetrahydrofuran, 25 C). Further, the log K of transfer, water to solvent in series [2] is 3.7 log10 K. Moreover, the log K of transfer, gas to solvent in series [3] (Hexadecane, 25 C) is 4.23 log10 K; in series [3] (Hexane, 25 C) it was 4.07 log10 K; in series [3] (Methanol, 25 C), 3.91 log10 K; in series [3] (Octan-1-ol, 25 C), 4.09 log10 K; in series [3] (Propan-2-ol, 25 C), 3.93 log10 K; in series [3] (Tetrahydrofuran, 25 C), 4.87 log10 K. For the same compound, the log K of transfer, gas to solvent in series [3] (Water, 25 C) is 0.39 log10 K.

As for `CC(C)SC(C)C`, the log K of transfer, water to solvent in series [1] (Hexadecane, 25 C) is 2.65 log10 K; in series [2], 2.52 log10 K. The log K of transfer, gas to solvent in series [3] (Hexadecane, 25 C) was 3.54 log10 K; in series [3] (Water, 25 C), 0.89 log10 K.

For the compound `ClC(Cl)(Cl)Cl`, the log K of transfer, water to solvent in series [1] (1,2-Dichloroethane, 25 C) is 3.1 log10 K; in series [1] (2-Methylpropan-2-ol, 25 C) it was 2.8 log10 K; in series [1] (Acetone, 25 C) it was 3.1 log10 K; in series [1] (Acetonitrile, 25 C), 2.74 log10 K; in series [1] (Butan-1-ol, 25 C) it was 2.9 log10 K; in series [1] (Butanone, 25 C) it was 3.1 log10 K. Moreover, the log K of transfer, water to solvent in series [1] (CCl4, 25 C) is 3.3 log10 K; in series [1] (Chloroform, 25 C) it was 3.31 log10 K; in series [1] (Cyclohexanone, 25 C), 3.23 log10 K; in series [1] (Di-n-butyl ether, 25 C), 3.11 log10 K; in series [1] (Diethyl Ether, 25 C) it was 3.28 log10 K; in series [1] (Ethanol, 25 C) it was 2.81 log10 K. Besides, the log K of transfer, water to solvent in series [1] (Hexadecane, 25 C) is 2.88 log10 K; in series [1] (Hexan-1-ol, 25 C), 2.87 log10 K; in series [1] (Hexane, 25 C), 3.09 log10 K; in series [1] (Methanol, 25 C) it was 2.72 log10 K; in series [1] (Octan-1-ol(dry), 25 C), 2.85 log10 K; in series [1] (Propan-1-ol, 25 C) it was 2.81 log10 K. In addition, the log K of transfer, water to solvent is 2.92 log10 K in series [1] (Propionitrile, 25 C); 3.47 log10 K in series [1] (Tetrahydrofuran, 25 C); 2.83 log10 K in series [2]. The log K of transfer, gas to solvent in series [3] (1,2-Dichloroethane, 25 C) was 3.04 log10 K; in series [3] (2-Methylpropan-2-ol, 25 C), 2.74 log10 K; in series [3] (Acetonitrile, 25 C), 2.68 log10 K; in series [3] (Butan-1-ol, 25 C), 2.84 log10 K; in series [3] (Butanone, 25 C), 3.04 log10 K; in series [3] (CCl4, 25 C), 3.24 log10 K. Moreover, the log K of transfer, gas to solvent was 3.25 log10 K in series [3] (Chloroform, 25 C); 3.17 log10 K in series [3] (Cyclohexanone, 25 C); 3.05 log10 K in series [3] (Di-n-butyl ether, 25 C); 3.22 log10 K in series [3] (Diethyl Ether, 25 C); 2.75 log10 K in series [3] (Ethanol, 25 C); 2.82 log10 K in series [3] (Hexadecane, 25 C). Further, the log K of transfer, gas to solvent in series [3] (Hexan-1-ol, 25 C) was 2.81 log10 K; in series [3] (Hexane, 25 C) it was 3.03 log10 K; in series [3] (Methanol, 25 C) it was 2.66 log10 K; in series [3] (Octan-1-ol, 25 C), 2.79 log10 K; in series [3] (Propan-1-ol, 25 C), 2.75 log10 K; in series [3] (Propanone, 25 C), 3.04 log10 K. Also, the log K of transfer, gas to solvent in series [3] (Propionitrile, 25 C) is 2.86 log10 K; in series [3] (Tetrahydrofuran, 25 C), 3.41 log10 K; in series [3] (Water, 25 C) it was -0.06 log10 K.

Consider `CCC(C)C`, for which the log K of transfer, water to solvent in series [1] (2-Methylpropan-2-ol, 25 C) is 3.63 log10 K; in series [1] (Cyclohexanone, 25 C) it was 3.64 log10 K; in series [1] (Hexadecane, 25 C) it was 3.76 log10 K; in series [2], 3.19 log10 K. The log K of transfer, gas to solvent was 1.88 log10 K in series [3] (2-Methylpropan-2-ol, 25 C); 1.89 log10 K in series [3] (Cyclohexanone, 25 C); 2.01 log10 K in series [3] (Hexadecane, 25 C); -1.75 log10 K in series [3] (Water, 25 C).
